# Assay results published in US20140309210A1, “INDAZOLE COMPOUNDS, COMPOSITIONS AND METHODS OF USE THEREOF” (Genentech, Inc., priority 2011, published 2014).
# Target: T1, purified ITK (Invitrogen PV3875) (Homo sapiens, UniProt Q08881)
# T1 construct: purchased Invitrogen PV3875
# T1 sequence (Q08881 1-620): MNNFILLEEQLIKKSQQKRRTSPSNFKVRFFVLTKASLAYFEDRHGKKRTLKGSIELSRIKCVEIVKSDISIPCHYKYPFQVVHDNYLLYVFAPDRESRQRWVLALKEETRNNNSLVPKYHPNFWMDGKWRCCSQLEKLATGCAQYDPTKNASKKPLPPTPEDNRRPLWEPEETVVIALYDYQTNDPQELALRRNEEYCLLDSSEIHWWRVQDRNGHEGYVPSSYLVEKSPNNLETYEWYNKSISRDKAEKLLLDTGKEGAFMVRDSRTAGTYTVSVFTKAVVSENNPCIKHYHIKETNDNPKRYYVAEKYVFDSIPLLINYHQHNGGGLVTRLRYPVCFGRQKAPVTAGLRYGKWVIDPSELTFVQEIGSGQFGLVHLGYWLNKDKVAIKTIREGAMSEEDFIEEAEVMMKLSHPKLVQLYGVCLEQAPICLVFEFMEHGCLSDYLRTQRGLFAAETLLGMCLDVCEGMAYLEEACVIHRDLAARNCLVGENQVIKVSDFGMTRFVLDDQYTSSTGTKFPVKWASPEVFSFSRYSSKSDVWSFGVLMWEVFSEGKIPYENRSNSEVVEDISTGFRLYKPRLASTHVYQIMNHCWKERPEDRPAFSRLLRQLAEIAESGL
# Assay: ITK peptide phosphorylation assay (Caliper LabChip or LCMS)
# Format: biochemical
# Procedure: The ability of purified ITK (Invitrogen PV3875) to catalyze peptide phosphorylation is monitored using a Caliper LabChip 3000 microfluidic unit (Caliper assay) or by liquid chromatography-mass spectrometry (LCMS) using a Waters Acquity system (LCMS assay). […] Reactions are quenched by the addition of 2,2′,2″,2′″-(ethane-1,2-diyldinitrilo)tetraacetic acid (50 mM final). Non-phosphorylated substrate and phosphorylated product peptides are separated and quantified using a Caliper LabChip 3000 instrument. […] Reactions are quenched by the addition of trichloroacetic acid (5% v/v final). Non-phosphorylated substrate and phosphorylated product peptides are separated by ultra performance LC and detected by a coupled triple quadrupole MS device applying multiple reaction monitoring (MRM) for quantification. The area of the MRM-extracted mass signal is used to assess the inhibition by test compounds. Equilibrium dissociation constant (Ki) values for ITK inhibitors are calculated from plots of activity vs. inhibitor concentration using Morrison's quadratic equation that accounts for the potential of tight binding, and by also applying the conversion factor that accounts for competitive inhibition and the concentration of ATP used in the assay relative to its apparent Michaelis constant (Km,app).
# [1] = Table 2, Examples 1-140, class symbols
# [2] = Table 3, specific values for certain examples
SMILES,Ki [1] [nM],Ki [2] [nM],"Ki (Table 1, Examples 141-279) [nM]"
"O=C(O)c1ccc(Cn2cc(NC(=O)c3n[nH]c4cc(-c5cn[nH]c5)ccc34)cn2)o1 [Example 35, 5-(4-{[6-(1H-Pyrazol-4-yl)-1H-indazole-3-carbonyl]-amino}-pyrazol-1-ylmethyl)-furan-2-carboxylic acid]",1 to 100,,
"O=C(Nc1cnn(Cc2csc(N3CCC(O)CC3)n2)c1)c1n[nH]c2cc(-c3cn[nH]c3)ccc12 [Example 159, N-[1-[[2-(4-hydroxy-1-piperidyl)thiazol-4-yl]methyl]pyrazol-4-yl]-6-(1H-pyrazol-4-yl)-1H-indazole-3-carboxamide]",,,3.11
"N#CCn1cc(NC(=O)c2n[nH]c3cc(-c4cn[nH]c4)ccc23)cn1 [Example 260, N-[1-(cyanomethyl)py-razol-4-yl]-6-(1H-pyrazol-4-yl)-1H-indazole-3-carboxamide]",,,11.9
"O=C(Nc1cnn(Cc2cccc(CNCC3CC3)c2)c1)c1n[nH]c2ccccc12 [Example 95, N-(1-(3-((cyclopropylmethylamino)methyl)benzyl)-1H-pyrazol-4-yl)-1H-indazole-3-carboxamide]",1 to 100,,
"O=C(Nc1cnn(Cc2csc(N3CCOCC3)n2)c1)c1n[nH]c2cc(-c3cn[nH]c3)ccc12 [Example 41, N-[1-[(2-morpholinothiazol-4-yl)methyl]pyrazol-4-yl]-6-(1H-pyrazol-4-yl)-1H-indazole-3-carboxamide]",1 to 100,,
"CN(C)CCC(c1ccccc1)n1cc(NC(=O)c2n[nH]c3cc(-c4cccnc4)ccc23)cn1 (stereo not shown) [Example 157, N-[1-[3-(dimethylamino)-1-phenyl-propyl]pyrazol-4-yl]-6-(3-pyridyl)-1H-indazole-3-carboxamide]",,,7.81
"Cc1cc2c(C(=O)Nc3cnn(Cc4cccc(C#N)c4)c3)n[nH]c2cc1-c1cc[nH]n1 [Example 156, N-[1-[(3-cyanophenyl)meth-yl]pyrazol-4-yl]-5-methyl-6-(1H-pyrazol-3-yl)-1H-indazole-3-carboxamide]",,,80.8
"N#Cc1cccc(Cn2cc(NC(=O)c3n[nH]c4cc(-c5cccnc5)c(F)cc34)cn2)c1 [Example 153, N-[1-[(3-cyanophenyl)meth-yl]pyrazol-4-yl]-5-fluoro-6-(3-pyridyl)-1H-indazole-3-carboxamide]",,,57.5
"O=C(Nc1cnn(CC2CC3CCC2C3)c1)c1n[nH]c2cc(-c3cn[nH]c3)ccc12 (stereo not shown) [Example 251, N-[1-(norbornan-2-ylmethyl)pyrazol-4-yl]-6-(1H-pyrazol-4-yl)-1H-indazole-3-carboxamide]",,,5
"Cc1ccc(Cn2cc(NC(=O)c3n[nH]c4ccccc34)cn2)cc1 [Example 53, N-(1-(4-methylbenzyl)-1H-pyrazol-4-yl)-1H-indazole-3-carboxamide]",1 to 100,,
"N#Cc1cccc(Cn2cc(NC(=O)c3n[nH]c4cc(C5CNC5)ccc34)cn2)c1 [Example 182, 6-(azetidin-3-yl)-N-[1-[(3-cyanophenyl)meth-yl]pyrazol-4-yl]-1H-indazole-3-carboxamide]",,,240
"CNCc1cccc(Cn2cc(NC(=O)c3n[nH]c4ccccc34)cn2)c1 [Example 101, N-(1-(3-((methylamino)methyl)benzyl)-1H-pyrazol-4-yl)-1H-indazole-3-carboxamide]",1 to 100,,
"CC1(Cn2cc(NC(=O)c3n[nH]c4cc(-c5cn[nH]c5)ccc34)cn2)COC1 [Example 253, N-[1-[(3-methyloxetan-3-yl)methyl]pyrazol-4-yl]-6-(1H-pyrazol-4-yl)-1H-indazole-3-carboxamide]",,,36.7
"O=C(Nc1cnn(CC2CNC2)c1)c1n[nH]c2cc(-c3cn[nH]c3)ccc12 [Example 262, N-[1-(azetidin-3-ylmethyl)pyrazol-4-yl]-6-(1H-pyrazol-4-yl)-1H-indazole-3-carboxamide]",,,4.69
"CCNCc1cccc(Cn2cc(NC(=O)c3n[nH]c4ccccc34)cn2)c1 [Example 99, N-(1-(3-((ethylamino)methyl)benzyl)-1H-pyrazol-4-yl)-1H-indazole-3-carboxamide]",1 to 100,,
"O=C(Nc1cnn(CC2CCC2)c1)c1n[nH]c2cc(-c3cn[nH]c3)ccc12 [Example 236, N-[1-(cyclobutylmeth-yl)pyrazol-4-yl]-6-(1H-pyrazol-4-yl)-1H-indazole-3-carboxamide]",,,6.09
"O=C(Nc1cnn(Cc2ccncc2)c1)c1n[nH]c2ccccc12 [Example 52, N-(1-(pyridin-4-ylmethyl)-1H-pyrazol-4-yl)-1H-indazole-3-carboxamide]",1 to 100,,

# Next, values leading:
Ki [1] [nM],Ki [2] [nM],"Ki (Table 1, Examples 141-279) [nM]",SMILES
> 100,> 3500,,"COc1cccc2c(C(=O)Nc3cnn(Cc4cccc(C#N)c4)c3)n[nH]c12 [Example 5, N-(1-(3-cyanobenzyl)-1H-pyrazol-4-yl)-7-methoxy-1H-indazole-3-carboxamide]"
> 100,,,"O=C(Nc1cnn(Cc2ccc(OC(F)(F)F)cc2)c1)c1n[nH]c2ccccc12 [Example 72, N-(1-(4-(trifluoromethoxy)benzyl)-1H-pyrazol-4-yl)-1H-indazole-3-carboxamide]"
1 to 100,,,"COc1ccc2[nH]nc(C(=O)Nc3cnn(Cc4cccc(C#N)c4)c3)c2c1 [Example 8, N-(1-(3-cyanobenzyl)-1H-pyrazol-4-yl)-5-methoxy-1H-indazole-3-carboxamide]"
,,8.3,"CN(CCC(c1ccccc1)n1cc(NC(=O)c2n[nH]c3ccccc23)cn1)CC(F)F (stereo not shown) [Example 273, N-[1-[3-[2,2-difluoroethyl(meth-yl)amino]-1-phenyl-propyl]pyrazol-4-yl]-1H-indazole-3-carboxamide]"
,,36.7,"CN(C)CCC(c1ccccc1)n1cc(NC(=O)c2n[nH]c3cc(-c4cn[nH]c4)cnc23)cn1 (stereo not shown) [Example 279, N-[1-[3-(dimethylamino)-1-phenyl-propyl]pyrazol-4-yl]-6-(1H-pyrazol-4-yl)-1H pyrazolo[4,3-b]pyridine-3-carboxamide]"
,,1.12,"O=C(Nc1cnn(Cc2cccnc2)c1)c1n[nH]c2cc(-c3cn[nH]c3)ccc12 [Example 216, 6-(1H-pyrazol-4-yl)-N-[1-(3-pyridylmethyl)py-razol-4-yl]-1H-indazole-3-carboxamide]"
,,0.127,"CN(C)CCC(c1cccc(Cl)c1)n1cc(NC(=O)c2n[nH]c3cc(-c4cn[nH]c4)ccc23)cn1 (stereo not shown) [Example 247, N-[1-[1-(3-chlorophenyl)-3-(dimethylami-no)propyl]pyrazol-4-yl]-6-(1H-pyrazol-4-yl)-1H-indazole-3-carboxamide]"
1 to 100,16.5,,"Cc1ccc2[nH]nc(C(=O)Nc3cnn(Cc4cccc(C#N)c4)c3)c2c1 [Example 2, N-(1-(3-cyanobenzyl)-1H-pyrazol-4-yl)-5-methyl-1H-indazole-3-carboxamide]"
,,26.3,"N#Cc1cccc(Cn2cc(NC(=O)c3n[nH]c4ccc(C5(CO)CC5)cc34)cn2)c1 [Example 193, N-[1-[(3-cyanophenyl)meth-yl]pyrazol-4-yl]-5-[1-(hydroxymeth-yl)cyclopropyl]-1H-indazole-3-carboxamide]"
1 to 100,,,"O=C(Nc1cnn(Cc2cccc(F)c2)c1)c1n[nH]c2ccccc12 [Example 63, N-(1-(3-fluorobenz)-1H-pyrazol-4-yl)-1H-indazole-3-carboxamide]"
,,41.6,"CN(CCC(c1ccccc1)n1cc(NC(=O)c2n[nH]c3ccccc23)cn1)S(C)(=O)=O (stereo not shown) [Example 272, N-[1-[3-[methyl(methyl-sulfonyl)amino]-1-phenyl-propyl]pyrazol-4-yl]-1H-indazole-3-carboxamide]"
,,0.0734,"Cc1cccc(C(CCN(C)C)n2cc(NC(=O)c3n[nH]c4cc(-c5cn[nH]c5)ccc34)cn2)c1 (stereo not shown) [Example 246, N-[1-[3-(dimethylamino)-1-(m-tolyl)propyl]py-razol-4-yl]-6-(1H-pyrazol-4-yl)-1H-indazole-3-carboxamide]"
> 100,,,"O=C(Nc1cnn(Cc2ccc(Cl)cc2Cl)c1)c1n[nH]c2ccccc12 [Example 73, N-(1-(2,4-dichlorobenzyl)-1H-pyrazol-4-yl)-1H-indazole-3-carboxamide]"
,,1.16,"O=C(Nc1cnn(Cc2cncs2)c1)c1n[nH]c2cc(-c3cn[nH]c3)ccc12 [Example 163, 6-(1H-pyrazol-4-yl)-N-[1-(thiazol-5-ylmethyl)pyrazol-4-yl]-1H-indazole-3-carboxamide]"
,,5.18,"N#Cc1cccc(Cn2cc(NC(=O)c3n[nH]c4cc(-c5cncc(Cl)c5)ccc34)cn2)c1 [Example 224, 6-(5-chloro-3-pyridyl)-N-[1-[(3-cyanophenyl)meth-yl]pyrazol-4-yl]-1H-indazole-3-carboxamide]"
